Experiments:
EWS-FLI1/RHA interaction = target: T1, EWS-FLI1/RHA interaction (Homo sapiens, UniProt Q01543+Q01844); test: Immunoblot of co-precipitated protein lysates from treated TC32 cells; format: cell-based; conditions: FIG. 4
T1 construct: endogenous in cells; host or cells: TC32 cells
T1 sequence (Q01844+Q01543 with tags, fused parts or gaps): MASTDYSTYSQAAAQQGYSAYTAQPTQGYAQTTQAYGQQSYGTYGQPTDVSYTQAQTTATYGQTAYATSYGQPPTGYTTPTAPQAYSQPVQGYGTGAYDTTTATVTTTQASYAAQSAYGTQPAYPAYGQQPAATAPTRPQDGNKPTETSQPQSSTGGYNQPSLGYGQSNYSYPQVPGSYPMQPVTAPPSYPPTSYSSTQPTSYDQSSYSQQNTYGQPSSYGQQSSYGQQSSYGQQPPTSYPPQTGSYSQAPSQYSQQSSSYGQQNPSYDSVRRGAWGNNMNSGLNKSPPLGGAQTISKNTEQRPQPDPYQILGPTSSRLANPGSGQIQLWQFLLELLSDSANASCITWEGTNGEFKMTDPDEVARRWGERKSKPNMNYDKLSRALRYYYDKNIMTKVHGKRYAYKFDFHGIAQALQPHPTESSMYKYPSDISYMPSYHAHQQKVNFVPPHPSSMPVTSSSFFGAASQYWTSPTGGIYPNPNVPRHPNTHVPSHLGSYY
Source text: The disruption of the interaction of RHA with EWS-FLI1 presents an avenue for the development of a class of small molecules as potential therapeutics against the Ewing's family sarcoma tumors.

EWS-FLI1 and ESFT cells = conditions: cited from earlier work
[1] = tested on: TC71 (human ESFT cell line); test: IC50 activity in TC71 cells; format: cell-based
Description: Compounds provided in Table 2 were prepared using methods similar to those described herein. The structures and IC50 activities of particular compounds in PANC1 (a human pancreatic carcinoma), TC32 (human ESFT cell line), and TC71 (human ESFT cell line) cells are summarized in Table 2.
Growth inhibition of ESFT cells was measured for various concentrations of particular compounds.

Row | disruption of interaction of RHA with EWS-FLI1 (EWS-FLI1/RHA interaction; co-precipitation) | SMILES | effect on level of EWS-FLI1 or RHA (EWS-FLI1/RHA interaction; immunoblot) | caspase-3 activity (EWS-FLI1 and ESFT cells) | functional inhibition of EWS-FLI1 and ESFT cells (EWS-FLI1 and ESFT cells) | potency compared with YK-4-279 [1]
1 | did disrupt their interactions | COc1ccc(C(=O)CC2(O)C(=O)Nc3c(Cl)ccc(Cl)c32)cc1 (racemic) [YK-4-279] | did not directly affect the level of EWS-FLI1 or RHA | increase | functionally inhibit EWS-FLI1 and ESFT cells | 
2 |  | CN(C)c1ccc(C(=O)CC2(O)C(=O)Nc3c(Cl)ccc(Cl)c32)cc1 (centres unmarked) [PT-1-17] |  |  |  | appeared to be more potent
